Test results: publication PMC3431801 (2012)

What was measured:
Assay type in all cases: biochemical
PDE1 = test: recombinant PDE activity assay with [3H]cAMP, calmodulin and Ca2+
PDE4D (PDE4) = PDE4D (PDE4) (Homo sapiens, UniProt Q08499); test: recombinant PDE activity assay with [3H]cAMP
PDE3 = test: recombinant PDE activity assay with [3H]cAMP

Sequence of PDE4D (PDE4) (Q08499 whole entry): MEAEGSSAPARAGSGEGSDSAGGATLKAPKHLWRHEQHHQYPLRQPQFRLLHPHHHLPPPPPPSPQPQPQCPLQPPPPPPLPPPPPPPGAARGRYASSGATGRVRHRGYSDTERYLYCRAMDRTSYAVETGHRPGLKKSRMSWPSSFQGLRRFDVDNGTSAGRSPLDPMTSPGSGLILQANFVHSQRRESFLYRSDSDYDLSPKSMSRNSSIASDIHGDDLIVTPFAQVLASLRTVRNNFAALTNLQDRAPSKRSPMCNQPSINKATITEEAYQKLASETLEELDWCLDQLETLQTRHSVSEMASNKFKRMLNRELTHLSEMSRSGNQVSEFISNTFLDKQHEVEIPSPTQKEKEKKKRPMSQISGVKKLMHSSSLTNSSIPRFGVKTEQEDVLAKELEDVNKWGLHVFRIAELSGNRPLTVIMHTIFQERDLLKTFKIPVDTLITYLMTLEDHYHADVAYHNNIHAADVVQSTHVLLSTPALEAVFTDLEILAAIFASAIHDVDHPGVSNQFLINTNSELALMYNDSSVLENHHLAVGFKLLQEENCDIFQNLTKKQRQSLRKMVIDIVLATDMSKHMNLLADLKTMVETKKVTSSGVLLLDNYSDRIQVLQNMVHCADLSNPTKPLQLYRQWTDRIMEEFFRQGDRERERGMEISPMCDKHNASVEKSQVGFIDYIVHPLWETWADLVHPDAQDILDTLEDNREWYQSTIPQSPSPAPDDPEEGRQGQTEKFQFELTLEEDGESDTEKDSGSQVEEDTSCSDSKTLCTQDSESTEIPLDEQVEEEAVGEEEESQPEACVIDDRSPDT

Compound: Oc1ccc(/C=C/c2cc(O)cc(O)c2)cc1 [resveratrol]
- IC50 (PDE1): ~6 µM
- IC50 (PDE4D (PDE4)): ~14 µM
- IC50 (PDE3): ~10 µM
